# Several values for one entry are separate records, joined by “and”; a condition that tells them apart may be missing. Equal values may be shown once. Where a name gives a salt, the structure may show the parent alone. Marks after values point to notes of the source that are not given here.
# How the values were obtained:
# [1] = Solvate formation or form change in ethanol (thermal cycling); assay type: physicochemical; conditions: three days, 40° C./5° C.
# Experimental: HCl Pattern 1 was stirred in ethanol to assess any solvation or form change in the solvent system. The following procedure was carried out. HCl Pattern 1 (20 mg) was suspended in 1 mL of ethanol. The suspension was thermally cycled for three days according to the following cycle: • Heat to 40° C. at a rate of 0.1° C./min; • Hold at 40° C. for one hour; • Cool to 5° C. at a rate of 0.1° C./min; • Hold at 5° C. for one hour.
# After three days, observations were recorded, and solids were isolated by centrifugation. Wet solids were analyzed by XRPD.
# [2] = Thermodynamic solubility in pH 1, 4.5 and 6.8 buffers; assay type: physicochemical
# Experimental: The thermodynamic solubility of HCl Pattern 1 was determined in duplicate according to the following procedure. HCl Pattern 1 (20 mg) was weighed into 6×2 mL glass vials. Then, 1000 μL of pH 1 hydrochloride, pH 4.5 acetate and pH 6.8 phosphate buffers were added to individual vials in 100 μL aliquots to give white slurries at each pH value. […] The pH was re-recorded and adjusted where necessary. The samples were isolated by centrifuge filtration. […] The concentrations of the saturated solutions were determined by HPLC.
# Buffer systems were added in 250 μL aliquots up to a total volume of 1 mL. The pH of each slurry was recorded and adjustments were made to the pH 1 system. No initial adjustment was made to the pH 4.5 or 6.8 system. An aliquot of the slurry was analyzed by XRPD. […] The pH was checked and adjusted where required. The slurries were filtered by centrifugation. The solids were isolated and analyzed by XRPD. The solutions were analyzed by HPLC to determine concentration.
# [3] = Dynamic Vapor Sorption (DVS); assay type: physicochemical; conditions: for DVS uptake, first sorption cycle / DVS uptake, second sorption cycle: 25° C., to 90% RH
# Experimental: Approximately 10-20 mg of sample was placed into a mesh vapor sorption balance pan and loaded into a DVS Advantage dynamic vapor sorption balance by Surface Measurement Systems. The sample was subjected to a ramping profile from 40-90% relative humidity (RH) at 10% increments, maintaining the sample at each step until a stable weight had been achieved (dm/dt 0.004%, minimum step length 30 minutes, maximum step length 500 minutes) at 25° C. After completion of the sorption cycle, the sample was dried using the same procedure to 0% RH and then a second sorption cycle back to 40% RH. Two cycles were performed. The weight change during the sorption/desorption cycles were plotted, allowing for the hygroscopic nature of the sample to be determined. XRPD analysis was then carried out on any solid retained.
# [4] = 7-day indicative stability (XRPD, HPLC purity); assay type: physicochemical; conditions: for change in form after 7 days / purity change after 7 days: ambient
# Experimental: The stability of HCl Pattern 1 was determined using the following procedure. HCl Pattern 1 (30 mg) was weighed into 3×2 mL glass vials. The three vials were then stored under the following conditions for 7-days: • Ambient temperature, humidity and light (open vial); • 40° C./75% RH (open vial); • 80° C. (closed vial).
# After 7 days, each sample was analyzed by: XRPD to assess form changes and HPLC to determine the purity of the samples.
# After 7 days at each storage condition, the solids were analyzed by XRPD to assess any changes in solid form and by HPLC to determine purity.
# [5] = tested on: caspase 3/7 in Hs68 cells; experiment: CaspaseGlo-3/7 in normal fibroblasts; assay type: cell-based; conditions: 300 pM to 10 μM; 24, 48 or 72 hours
# Experimental: The Hs68 Normal foreskin fibroblast cell line was grown in DMEM-high glucose/1× Glutamax/10% fetal bovine serum and was plated at 1,000 cells/well in Corning 96 well white wall/clear bottom tissue culture treated plates. […] Plates were removed from incubator at each specified timepoint and treated with CaspaseGlo-3/7 (Promega, Inc) following manufacturer specifications. Plates were then read on Biotech luminometer with 1 sec/well integration. Results were converted to Microsoft Excel and transferred to GraphPad Prism for Analysis (FIG. 5A-C).
# [6] = tested on: caspase 3/7 in H526 cells; experiment: CaspaseGlo-3/7 activation; assay type: cell-based, human
# Experimental: Plates were removed from incubator and treated with CaspaseGlo-3/7 (Promega, Inc) following manufacturer specifications. Plates were then read on a Biotech luminometer with 1 sec/well integration. Results were converted to Microsoft Excel and transferred to GraphPad Prism for Analysis (FIG. 22D).
# Plates were removed from the incubator at each specified timepoint and treated with CaspaseGlo-3/7 (Promega, Inc) following manufacturer specifications. Plates were then read on Biotech luminometer with 1 sec/well integration. Results were converted to Microsoft Excel and transferred to GraphPad Prism for Analysis (FIG. 27A-C).
# [7] = Hydration study in ethanol:water mixtures; assay type: physicochemical; conditions: 24 hours; for XRPD: solids from slurry
# Experimental: A hydration study was carried out on the material according to the following procedure. […] Ethanol: water solutions (Table 77) were added in 250 μL aliquots to a total volume of 1 mL. The slurries were stirred at 25° C. for 24 hours. After 24 hours the slurries were filtered by centrifugation. The solids were isolated and analyzed by XRPD. The solution was isolated and analyzed by HPLC to determine concentration.
# [8] = Disproportionation study in water; assay type: physicochemical
# Experimental: A study disproportionation was carried out using the following procedure. […] The pH was recorded, and the suspension was stirred for ca. 24 hours at 25° C. After 24 hours the pH was recorded, and the slurry was filtered by centrifugation. The solids were isolated and analyzed by XRPD. The solution was isolated and analyzed by HPLC to determine concentration.
# [9] = Thermodynamic solubility in pH 1, 4.5 and 6.8 buffers; assay type: physicochemical; conditions: for Solubility: 25° C., 24 hours
# [10] = Salt screen storage at 40° C./75% RH, XRPD form; assay type: physicochemical; conditions: after storage at 40° C./75% RH, scale up from ethyl acetate
# Experimental: XRPD analysis was carried out on any isolated solids or gums as described in Example 10 below. The XRPD plate, and the isolated solids, were dried at 40° C. for ca. 24 hours and re-analyzed by XRPD. The XRPD plate was further dried at 40° C./75% RH for ca. 24 hours and XRPD analysis was repeated.
# After three days, observations were recorded and solids were isolated by centrifugation. The wet solids were analyzed by XRPD. Solids were dried at 40° C. under vacuum for 72 hours and re-analyzed by XRPD. Solids were dried at 40° C./75% RH for 18 hours and re-analyzed by XRPD.
# [11] = pH 6.8 (Phosphate) buffer, 25° C., 24 hours
# [12] = residual solids, pH 1 (HCl) buffer, 25° C., 24 hours
# [13] = 7 days, 40° C./75% RH (open vial)
# [14] = 7 days, ambient temperature, humidity and light (open vial)
smiles,measurement,setting,value
NS(=O)(=O)c1ccc(Nc2ncc3cc4n(c3n2)C2(CCCCC2)C(=O)NN4)cc1 [HCl Pattern 1],form after thermal cycling in ethanol,[1],produced HCl Pattern 2
same,Solubility,"[2]; pH 1 (HCl) buffer, 25° C., 24 hours",2.7 µg/mL
same,solubility at 24 h,"[2]; pH 1 hydrochloride buffer, 25 °C, pH 1, simulated gastric fluid, thermodynamic from solid, pH 1 (HCl) buffer, 24 hours",3.8 µg/mL
same,Solubility,"[2]; pH 4.5 (Acetate) buffer, 25° C., 24 hours",<LOQ
same,residual solids by XRPD,"[2]; pH 4.5, 25° C., 24 hours",formation of free base
same,Solubility,[2]; [11],<LOQ
same,residual solids by XRPD,"[2]; pH 6.8, 25° C., 24 hours",formation of free base
same,XRPD,[2]; [12],1
same,form post DVS by XRPD,[3],no observable form change had occurred
same,hygroscopicity (DVS),[3],moderately hygroscopic
same,"DVS uptake, first sorption cycle",[3],5.15%
same,"DVS uptake, second sorption cycle",[3],5.10%
same,HPLC Purity,[4]; [13],97.98 % w/w
same,Observation,[4]; [13],White Solid
same,XRPD,[4]; [13],HCl Pattern 1
same,HPLC Purity,"[4]; 7 days, 80° C. (closed vial)",96.97 % w/w
same,Observation,"[4]; 7 days, 80° C. (closed vial)",White Solid
same,XRPD,"[4]; 7 days, 80° C. (closed vial)",HCl Pattern 1
same,HPLC Purity,[4]; [14],98.02 % w/w
same,Observation,[4]; [14],Yellow Solid
same,XRPD,[4]; [14],HCl Pattern 1
same,change in form after 7 days,"[4]; 40° C./75% RH, 80° C.",no observable change in form
same,purity change after 7 days,"[4]; 40° C./75% RH, 80° C.",decrease in purity was noted for all samples
CN[C@@H]1C[C@H]2O[C@@](C)([C@@H]1OC)n1c3ccccc3c3c4c(c5c6ccccc6n2c5c31)C(=O)NC4 [staurosporine],caspase 3/7 activation,[5],substantial increase
same,caspase 3/7 activation,[6]; 24 hours,robust caspase 3/7 activation
same,IC50,"[6]; Homo sapiens, NCI-H526, 72 hours",6 nM
NS(=O)(=O)c1ccc(Nc2ncc3cc4n(c3n2)C2(CCCCC2)C(=O)NN4)cc1.O=P(O)(O)O [phosphate Pattern 7],XRPD,"[2]; 24 h Solubility at 37° C., pH 4.5, residual solids",Free Base Pattern 1
same,XRPD,"[2]; 24 h Solubility at 37° C., pH 6.8, residual solids",Free Base Pattern 1
same,thermodynamic solubility in three buffer systems,"[2]; pH 1, 4.5, 6.8",low aqueous solubility
same,residual solids by XRPD,"[2]; pH 1, 25° C., 24 hours",mixture of HCl Pattern 1 and free base
same,"24 h Solubility at 37° C., Concentration",[2]; pH 4.5,5.2 µg/mL
same,residual solids by XRPD,"[2]; pH 4.5, 25° C., 24 hours",dissociation to free base
same,"24 h Solubility at 37° C., Concentration",[2]; pH 6.8,4.2 µg/mL
same,Solubility,[2]; [11],4.2 µg/mL
same,residual solids by XRPD,"[2]; pH 6.8, 25° C., 24 hours",dissociation to free base
same,XRPD,[2]; [12],HCl Pattern 1
same,XRPD,"[2]; residual solids, pH 4.5 (Acetate) buffer, 25° C., 24 hours",Free base
same,XRPD,"[2]; residual solids, pH 6.8 (Phosphate) buffer, 25° C., 24 hours",Free base
same,form after stirring in ethanol:water mixtures,[7]; 25° C.,disproportionation of the salt to free base material
same,Solubility,"[7]; Ethanol:Water (63.6:36.4 % v/v), Calc Aw 0.745, 25° C.",0.9878 mg/mL
same,Solubility,"[7]; Ethanol:Water (92.9:7.1 % v/v), Calc Aw 0.507, 25° C.",1.6648 mg/mL
same,Solubility,"[7]; Ethanol:Water (98.4:1.6 % v/v), Calc Aw 0.257, 25° C.",1.2170 mg/mL
same,XRPD,"[7]; Ethanol:Water (63.6:36.4), Aw 0.745, 25° C.",Free Base Pattern 2
same,XRPD,"[7]; Ethanol:Water (92.9:7.1), Aw 0.507, 25° C.",Free Base Pattern 3
same,XRPD,"[7]; Ethanol:Water (98.4:1.6), Aw 0.257, 25° C.",Free Base Pattern 3
same,form post DVS by XRPD,[3],no observable form change had occurred
same,hygroscopicity (DVS),[3],moderately hygroscopic
same,"DVS uptake, first sorption cycle",[3],4.76%
same,"DVS uptake, second sorption cycle",[3],5.18%
same,DVS Moisture Uptake at 80% RH,[3]; first sorption cycle,4.76 wt. %
same,XRPD,[3]; post DVS,Phosphate Pattern 7*
same,DVS Moisture Uptake at 80% RH,[3]; second sorption cycle,5.18 wt. %
same,form after stirring in water,"[8]; 25° C., ca. 24 hours",indicative of disproportionation
same,XRPD,"[8]; slurry at 25° C. in water, 24 hours",Free Base Pattern 10
same,XRPD,"[9]; 24 h Solubility at 37° C., pH 1.2, residual solids",HCl Pattern 1
same,Solubility,[9]; pH 1 (HCl) buffer,3.8 µg/mL and 2.7 µg/mL
same,Solubility,[9]; pH 4.5 (Acetate) buffer,5.8 µg/mL and 5.2 µg/mL
same,HPLC Purity,"[4]; 7 Day Stability, 40° C./75% RH",89.63 % area
same,HPLC Purity,"[4]; 7 Day Stability, 80° C.",98.08 % area
same,HPLC Purity,"[4]; 7 Day Stability, Ambient, Light",97.90 % area
same,HPLC Purity,[4]; [13],89.63 % w/w
same,Observation,[4]; [13],Faint Pink Solid
same,XRPD,[4]; [13],Phosphate Pattern 7*
same,HPLC Purity,"[4]; 7 days, 80° C. (closed vial)",98.08 % w/w
same,Observation,"[4]; 7 days, 80° C. (closed vial)",White Solid
same,XRPD,"[4]; 7 days, 80° C. (closed vial)",Phosphate Pattern 7*
same,HPLC Purity,[4]; [14],97.87 % w/w
same,Observation,[4]; [14],Faint Yellow Solid
same,XRPD,[4]; [14],Phosphate Pattern 7*
same,change in form after 7 days,"[4]; 40° C./75% RH, 80° C.",no observable change in form
same,purity change after 7 days,"[4]; 40° C./75% RH, 80° C.",significant decrease in purity
same,XRPD,[10],Pattern 7*

# Source: US20250199015A1, “CYCLIN-DEPENDENT KINASE 2 INHIBITORS FOR MEDICAL TREATMENT” (INCYCLIX BIO, LLC, priority 2022, published 2025)
